Results taken from ChEMBL document CHEMBL1148456, “Structure-based design and synthesis of non-nucleoside, potent, and orally bioavailable adenosine deaminase inhibitors” (J Med Chem, 2004).
Converted amounts (≈) assume the structure as drawn.

Tests used:
Mus musculus [1] = assay: Antitumor activity after administration (p.o.) in mice U937 cells at a dose of 32 mg/kg once daily dosing (u.i.d.); assay type: functional, U-937; settings: route oral
Mus musculus [2] = assay: Antitumor activity after administration (p.o.) in mice U937 cells at a dose of 32 mg/kg twice daily dosing (b.i.d.); assay type: functional, U-937; settings: route oral
Mus musculus [3] = assay: Antitumor activity after administration (p.o.) in mice U937 cells at a dose of 10 mg/kg twice daily dosing (b.i.d.); assay type: functional, U-937; settings: route oral
Mus musculus [4] = assay: Antitumor activity after administration (i.p.) in mice U937 cells at a dose of 2.5 mg/kg; settings: route intraperitoneal
Mus musculus [5] = assay: Antitumor activity after administration (i.p.) in mice U937 cells at a dose of 0.025 mg/kg; assay type: functional, U-937; settings: route intraperitoneal
Mus musculus [6] = assay: Antitumor activity after administration (i.p.) in mice U937 cells at a dose of 0.25 mg/kg; settings: route intraperitoneal
[7] = (§1) In vitro clearance in rat liver microsomes; assay type: ADME, Microsome; settings: read-out: Clearance
[8] = Half-life in rat after po administration at a dose of 10 mg/kg; assay type: ADME, organism-based; set-up: dose 10 mg/kg, route oral; settings: in vivo
[9] = AUC in rat after po administration at a dose of 10 mg/kg; assay type: ADME, organism-based; set-up: dose 10 mg/kg, route oral; settings: plasma, read-out: AUC 0-24h
[10] = Oral bioavailability in rat (dose 10 mg/kg); assay type: ADME, organism-based; settings: in vivo
[11] = In vitro clearance in human liver microsomes; assay type: ADME, Microsome; settings: read-out: Clearance
[12] = Solubility was determined; assay type: physicochemical
[13] = Maximum plasma concentration in rat after po administration; assay type: ADME, organism-based; set-up: route oral
[14] = Oral bioavailability in dog (dose 10 mg/kg); assay type: ADME, organism-based, Canis lupus familiaris; settings: in vivo
Canis familiaris = species: Canis familiaris; assay: (§2) In vitro clearance in dog liver microsomes; assay type: ADME, Canis lupus familiaris, Microsome
Mus musculus [15] = assay: Antitumor activity after administration (p.o.) with U937 cells in mice at a dose of 10 mg/kg; assay type: functional, U-937; settings: route oral
[16] = target: T1, Adenosine deaminase (Homo sapiens) (UniProt P00813); settings: Rattus norvegicus
T1 sequence (whole entry): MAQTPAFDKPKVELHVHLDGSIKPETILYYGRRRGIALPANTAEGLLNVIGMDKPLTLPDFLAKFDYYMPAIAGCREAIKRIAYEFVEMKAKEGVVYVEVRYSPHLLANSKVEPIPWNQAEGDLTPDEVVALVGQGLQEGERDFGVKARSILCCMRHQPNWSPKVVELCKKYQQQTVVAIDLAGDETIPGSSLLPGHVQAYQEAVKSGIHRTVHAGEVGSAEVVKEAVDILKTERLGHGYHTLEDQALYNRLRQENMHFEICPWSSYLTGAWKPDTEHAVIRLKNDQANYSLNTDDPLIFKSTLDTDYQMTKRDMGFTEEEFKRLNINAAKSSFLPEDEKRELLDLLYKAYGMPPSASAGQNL
Description: In vivo anti-inflammatory activity against adenosine deaminase (ADA) in the adjuvant arthritis model in rat (p.o.)

Rattus norvegicus = species: Rattus norvegicus; assay: as §1; assay type: ADME, Microsome
[17] = as §2; assay type: ADME, Canis lupus familiaris, Microsome; settings: read-out: Clearance

CLint scaled [7] [mL/min/kg] | half-life [8] [h] | AUC [9] [ng·h/mL] | bioavailability [10] [%] | CLint scaled [11] [mL/min/kg] | Solubility [12] [µg/mL] | bioavailability [14] [%] | Compound | further results
– | – | – | – | – | – | – | C[C@H](O)[C@@H](CCOc1ccc2ccccc2c1)n1cnc(C(N)=O)c1.Cl | MST (Mus musculus [1]): 38 days; MST (Mus musculus [2]): 42.5 days; MST (Mus musculus [3]): 34 days
– | – | – | – | – | – | – | OC[C@H]1O[C@@H](n2cnc3c2N=CNC[C@H]3O)C[C@@H]1O [PENTOSTATIN] | MST (Mus musculus [4]): 42.5 days; MST (Mus musculus [5]): 28.5 days; MST (Mus musculus [6]): 34 days
– | – | – | – | – | – | – | Nc1ncnc2c1ncn2[C@@H]1O[C@H](CO)[C@@H](O)[C@@H]1O [VIDARABINE] | MST (Mus musculus [15]): 23.5 days
111 | 1.66 | 2110 | 44 | 4.5 | 500 (≈ 1460 µM) | 43 | C[C@H](O)[C@@H](CCc1cccc(Cl)c1Cl)n1cnc(C(N)=O)c1 | ED30 [16]: 1.6 mg/kg
– | – | < 100 | – | 123 | 4.2 (≈ 8.41 µM) | – | Cn1c(CCC(=O)Nc2ccc3ccn(CC[C@H](CO)n4cnc(C(N)=O)c4)c3c2)nc2ccccc21 | Clearance (Rattus norvegicus): 35 mL/min/kg; Cmax [13]: < 100 ng/mL; CLint scaled [17]: 97 mL/min/kg
307 | 0.66 | 1370 | 30 | 45 | 481 (≈ 1490 µM) | 38 | C[C@H](O)[C@@H](CCc1cccc2ccccc12)n1cnc(C(N)=O)c1 | –

Compound | CLint scaled [7] [mL/min/kg] | half-life [8] [h] | AUC [9] [ng·h/mL] | bioavailability [10] [%] | CLint scaled [11] [mL/min/kg] | Solubility [12] [µg/mL] | bioavailability [14] [%] | further results
C[C@H](O)[C@@H](CCOc1ccc2ccccc2c1)n1cnc(C(N)=O)c1 | 79 | 1.12 | 1850 | 42 | 3.8 | 80 (≈ 236 µM) | 91 | MST (Mus musculus [1]): 30 days; MST (Mus musculus [2]): 35.5 days; Cmax [13]: 970 ng/mL; MST (Mus musculus [3]): 30 days; Clearance (Canis familiaris): 11 mL/min/kg
